Results as given in PMC9995905, “Characteristics of antimicrobial peptide OaBac5mini and its bactericidal mechanism against Escherichia coli” (Frontiers in Veterinary Science, 2023).
Entries after “also recorded” stand apart in the source; their conditions may differ. Where no end group is shown, it is not given here.

Assays:
E. coli ATCC 25922 [1] = test: Time-kill curve; assay type: cell-based, Escherichia coli; conditions: MH broth, 37°C, 5×10^5 CFU/ml, triplicate
Description: To investigate the time-kill effect of OaBac5mini against E. coli ATCC 25922, bacteria (5×10^5 CFU/ml) were cultured in fresh Mueller-Hinton (MH) broth (Yashi Organisms, China) with different concentrations of OaBac5mini (0, 50, 100, and 200 μg/ml) at 37°C with shaking at the speed of 220 rpm. Equal amounts (100 μl) of E. coli ATCC 25922 from each sample were withdrawn at 0, 2, 4, 6, 8, 10, 12, and 24 h, diluted with Luria-Bertani (LB) broth (Solarbio, China) and plated onto LB agar plates. Plates were placed at 37°C for 18 h for the CFU counts.

E. coli ATCC 25922 [2] = test: microbe, parasite or virus in culture; conditions: ATCC 25922
Description: (§1) MICs of OaBac5mini, amoxicillin, kanamycin, florfenicol and tetracycline were determined using the two-fold broth microdilution method according to the Clinical and Laboratory Standards Institute (CLSI) guidance ([21]). MIC values of the tested antibacterial agents were determined on three independent occasions. Escherichia coli ATCC 25922 was used as the quality control in all the susceptibility tests.

S. aureus ATCC 25923 = test: microbe, parasite or virus in culture; conditions: ATCC 25923
Description: as §1

E. coli ATCC 25922 ΔsbmA = conditions: two-fold broth microdilution, CLSI; three independent occasions; sbmA deletion mutant
Description: The method described by Datsenko and Wanner was used for chromosomal gene deletion ([20]). […] The PCR fragment (1,567 bp) was purified, digested with DpnI, repurified and transferred into E. coli ATCC 25922 by electroporation, in which the Red recombinase expression plasmid pKD46 was previously transformed and induced by L-arabinose. Transformants were selected on Luria-Bertani (LB) agar containing 50 μg/ml of kanamycin at 37°C. The inserted sequence was amplified from the kanamycin-resistant strains by using the primers SBMF: 5′-[…]-3′ and SBMR: 5′-[…]-3′ which is located outside of inactivated gene. The length of the PCR product of sbmA using the primers set SBMF and SBMR in E. coli ATCC 25922 is 1,404 bp. When sbmA is successfully inactivated, the PCR product (2,198 bp) was amplified and sequenced for the verification of the gene deletion.
as §1

E. coli ATCC 25922 [3] = assay type: cell-based, Escherichia coli
IPEC-J2 cells = assay type: cell-based, porcine
Description: The cells were maintained in CO2 incubator (Galaxy R, RS Biotech, Scotland) with 5% CO2 at 37°C. Real time cellular analysis (RTCA) was used to evaluate the proliferation and viability of IPEC-J2 cells. […] Real time cellular analysis was monitored using xCELLigence RTCA DP system (xCELLigence, ACEA biosciences, USA) for 100 h at 15 min intervals. The cell index was normalized by RTCA software 2.0 (xCELLigence, ACEA biosciences, USA).

[4] = test system: Gram-positive bacteria and C. albicans; conditions: cited from earlier work
Description: (§2) Antimicrobial peptides (AMPs) are small molecular peptides in living organisms and serve as natural barriers against the invasion of pathogenic microorganisms ([5]). They are often referred to as cationic host defense peptides (HDPs) or cationic antimicrobial peptides (CAMPs) ([6]). Cathelicidins are one of the best characterized AMP families. Each cathelicidin includes an N-terminal signal domain, a cathelin-like domain, and an antimicrobial C-terminal domain ([7]). Among them, the proline-rich antibacterial peptides (PrAMPs) have been attracting the close attention of researchers due to thei ...

Gram-negative bacteria = conditions: cited from earlier work
Description: as §2

RFRPPIRRPPIRPPFRPPFRPPVR [OaBac5mini]
Time-kill effect at 50 μg/ml (2 × MIC) (E. coli ATCC 25922 [1]; 50 μg/ml, 24 h): the number of bacteria remained stable in the first co-incubation for 8h before it increased
Time-kill effect at 100 μg/ml (E. coli ATCC 25922 [1]; 100 μg/ml, 24 h): decrease after co-incubation for 12 h and increase in further co-incubation for 12 h
Time-kill effect at 200 μg/ml (8 × MIC) (E. coli ATCC 25922 [1]; 200 μg/ml, co-incubation for 12 h): could effectively kill; also recorded: effectively killed
MIC against E. coli ATCC 25922 (E. coli ATCC 25922 [2]): 25 µg/mL
MIC against S. aureus ATCC 25923 (S. aureus ATCC 25923): >250 µg/mL
MIC against E. coli ATCC 25922 ΔsbmA (E. coli ATCC 25922 ΔsbmA): 100 µg/mL
Increase of MIC in the presence of physiological concentration of CaCl2 (E. coli ATCC 25922 [3]; 2.5 mM CaCl2 versus MH broth alone, E. coli ATCC 25922): four-fold
MIC against E. coli ATCC 25922 in MH broth (E. coli ATCC 25922 [3]; ATCC 25922): 25 µg/mL
MIC against E. coli ATCC 25922 in MH broth + CaCl2 (E. coli ATCC 25922 [3]; ATCC 25922): 100 µg/mL
MIC against E. coli ATCC 25922 in MH broth + FeCl3 (E. coli ATCC 25922 [3]; ATCC 25922): 16.67 µg/mL
MIC against E. coli ATCC 25922 in MH broth + KCl (E. coli ATCC 25922 [3]; ATCC 25922): 20.83 µg/mL
MIC against E. coli ATCC 25922 in MH broth + MgCl2 (E. coli ATCC 25922 [3]; ATCC 25922): 50 µg/mL
MIC against E. coli ATCC 25922 in MH broth + NH4Cl (E. coli ATCC 25922 [3]; ATCC 25922): 12.5 µg/mL
MIC against E. coli ATCC 25922 in MH broth + NaCl (E. coli ATCC 25922 [3]; ATCC 25922): 33.33 µg/mL
Cell indexes of IPEC-J2 cells at 400 μg/ml compared to the control group (IPEC-J2 cells): didn't change significantly
Cell indexes of treated IPEC-J2 cells compared with the control group (IPEC-J2 cells): significant increase
MICs against Gram-positive bacteria and C. albicans [4]: 16 to 64 µg/mL
MICs against Gram-negative bacteria (Gram-negative bacteria): 0.125 to 8 µg/mL
